The test system of data set [1] is PBMC. In words: Cytotoxicity against PBMC (unknown origin) at 0.05 mM after 8 hrs by MTT assay. The settings on record: 50 µM. It is filed as cell-based.
The test system of data set [2] is Mycolicibacterium smegmatis. In words: Antibacterial activity against Mycobacterium smegmatis. It is filed as functional.
The test system of data set [3] is Staphylococcus aureus. In words: Antibacterial activity against Staphylococcus aureus after 24 hrs by Alamar blue assay. It is filed as functional.
Data set [4] relates to Burkholderia thailandensis. In words: Antibacterial activity against Burkholderia thailandensis. Format: functional.

These results are taken from ChEMBL document CHEMBL2440110, “Synthesis of azide derivative and discovery of glyoxalase pathway inhibitor against pathogenic bacteria” (Bioorg Med Chem Lett, 2013).

Each structure is given as a SMILES string. In brackets after ≈: the same amount, converted by molar mass.

`COC(=O)[C@@H](N=[N+]=[N-])[C@@H](OC(=O)CNC(=O)C(CS)NC(=O)CCC(NC(=O)OCc1ccccc1)C(=O)O)C(=O)OC` (stereo partly specified): the Activity result in data set [1] is given as “Non-toxic”. For the same compound, the MIC90 (as a rule, the lowest concentration that inhibits either 90% of growth or 90% of the strains tested, depending on the study) was determined as 6 µg/mL (≈ 9.58 µM) in data set [2] and 5 µg/mL (≈ 7.98 µM) in data set [3].

Consider `O=C(O)CNC(=O)C(CS)NC(=O)CCC(NC(=O)OCc1ccccc1)C(=O)O` (stereo unspecified), for which the Activity entry in data set [1] was “Non-toxic”. Moreover, the MIC90 came out at 20 µg/mL (≈ 45.3 µM) in data set [3] and 12.5 µg/mL (≈ 28.3 µM) in data set [4].
